Measurements: ChEMBL document CHEMBL4725292 (J Med Chem, 2020)
The source made the active and inactive calls. The rule behind the calls is not given here.

Key:
[1] = target: T1, ATPase family AAA domain-containing protein 2 (Homo sapiens, UniProt Q6PL18); experiment: Binding affinity to human partial length ATAD2A (Q981 to R1108 residues) expressed in bacterial expression system by BROMOscan assay
T1 sequence (Q6PL18 whole entry): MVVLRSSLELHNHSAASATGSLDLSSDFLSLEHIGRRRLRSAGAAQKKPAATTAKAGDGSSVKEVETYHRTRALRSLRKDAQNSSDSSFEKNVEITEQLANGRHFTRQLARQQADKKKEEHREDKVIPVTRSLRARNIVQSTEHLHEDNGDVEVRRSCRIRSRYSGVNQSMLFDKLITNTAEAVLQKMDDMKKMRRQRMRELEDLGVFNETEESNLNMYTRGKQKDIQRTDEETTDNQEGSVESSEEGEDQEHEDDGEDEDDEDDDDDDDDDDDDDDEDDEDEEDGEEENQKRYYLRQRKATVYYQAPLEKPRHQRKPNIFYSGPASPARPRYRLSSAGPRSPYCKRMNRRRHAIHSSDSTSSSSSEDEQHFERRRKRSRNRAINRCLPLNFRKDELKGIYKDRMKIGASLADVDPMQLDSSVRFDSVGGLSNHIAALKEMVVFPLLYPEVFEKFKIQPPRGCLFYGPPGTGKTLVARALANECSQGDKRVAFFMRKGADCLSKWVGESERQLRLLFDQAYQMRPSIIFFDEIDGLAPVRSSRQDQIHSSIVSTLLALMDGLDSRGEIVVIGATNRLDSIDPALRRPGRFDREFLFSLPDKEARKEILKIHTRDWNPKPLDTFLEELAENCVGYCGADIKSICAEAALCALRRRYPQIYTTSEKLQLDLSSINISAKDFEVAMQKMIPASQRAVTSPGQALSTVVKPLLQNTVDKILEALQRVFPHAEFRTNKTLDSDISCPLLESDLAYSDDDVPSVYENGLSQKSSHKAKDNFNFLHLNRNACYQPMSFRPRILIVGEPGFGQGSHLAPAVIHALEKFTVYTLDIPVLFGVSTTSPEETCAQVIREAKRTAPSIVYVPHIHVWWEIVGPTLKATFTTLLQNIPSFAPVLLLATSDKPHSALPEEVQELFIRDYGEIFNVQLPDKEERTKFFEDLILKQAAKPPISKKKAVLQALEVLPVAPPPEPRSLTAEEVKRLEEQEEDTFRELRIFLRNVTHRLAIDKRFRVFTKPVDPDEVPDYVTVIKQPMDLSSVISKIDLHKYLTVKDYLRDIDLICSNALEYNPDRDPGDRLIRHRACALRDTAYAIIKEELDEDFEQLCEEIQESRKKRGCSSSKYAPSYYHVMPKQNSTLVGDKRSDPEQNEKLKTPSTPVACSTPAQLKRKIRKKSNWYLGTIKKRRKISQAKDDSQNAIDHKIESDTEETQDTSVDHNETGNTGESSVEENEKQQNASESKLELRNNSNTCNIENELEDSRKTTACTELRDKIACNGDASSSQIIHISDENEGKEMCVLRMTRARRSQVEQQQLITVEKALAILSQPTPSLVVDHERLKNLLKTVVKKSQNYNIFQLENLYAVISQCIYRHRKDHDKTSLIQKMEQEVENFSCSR

B cell = experiment: Downregulation of IL-6 secretion in human B cells cocultured with human PBMC at 0.37 to 10 uM preincubated for 1 hr followed by anti-IgM and TCR stimulation and measured after 84 hrs by ELISA; format: functional, cell-based; conditions: dose microM 0.37-10, time 1.0 hrs

## Cc1cc2c(-c3ccco3)cnc(N[C@@H]3CCN(C)C[C@H]3C(=O)NC3CCCCC3)c2[nH]c1=O [GSK789]
[1]
  Kd: 15.8 µM
B cell
  Activity: Active
